A word on the melting point: it is the temperature, or range, at which the solid turns liquid.

The results in this text go back to a melting point compilation (Tetko et al.; mined from patent text by program, amines drawn as free bases though some values may be those of a salt).

Turning to `COC(=O)NNC(=S)CC1CCCCO1` (configuration not stated), the melting point was 110 °C.
The compound `Cn1ccnc1Sc1ccc([N+](=O)[O-])cc1` returned a melting point of 120 to 121 °C.
Next, `COCCOCCn1cc(C(=O)NCc2ccc(Cl)cc2)c(=O)c2cc(CN3CC[C@@H](O)C3)ccc21`: 106 to 109 °C; `COC(=O)C(c1ccccc1)C1CCN(c2ccc([N+](=O)[O-])cc2)CC1` (configuration not stated): 124 °C.
To `O=c1[nH]c2ccccc2n1CCNCc1ccc(CN2CCCCC2)o1` belongs 83 to 85 °C; to `CCc1cccc(C)c1CNc1cc(Cl)nc2c1nc(C)n2C`, 157 to 159 °C.
In turn, `Cc1ccc(CN2Cc3cncn3CC2=O)cc1` displayed a melting point of 105 to 108 °C.
Next, `CC(=O)Nc1cc(C(O)CN(Cc2ccccc2)C(C)Cc2ccc(O)cc2)ccc1OCc1ccccc1` (configuration not stated): 141 to 143 °C; `Nc1nc(N2CCC2)c2ncn(C3C=CC(CO)C3)c2n1` (configuration not stated): 187 to 189 °C; `C=Cc1c(CC)nc(CC)c(CO)c1-c1ccccc1`: 84 to 85 °C.
Take `CCn1ncc2c3onc(-c4cccc(O)c4)c3cnc21`: the melting point lay within 187 to 188 °C.
With `C=Cc1ccc(CSC2C(=O)N(c3c(Cl)cc(Cl)cc3Cl)N=C2Nc2cc(NC(C)=O)ccc2Cl)cc1` (configuration not stated), the melting point worked out at 240 °C.
Compound `O=C1c2ccccc2C(=O)N1CCCN(c1ccccc1)c1ccccn1` gave a melting point of 103 to 105 °C.
To `CSCC(C)OC(=O)C(=C1NCCCS1)[N+](=O)[O-]` (configuration not stated) belongs 58 to 60 °C.
In turn, `Cc1onc(-c2ccc(C(F)(F)F)cc2)c1CCl` displayed a melting point of 91 to 92 °C.
To `CC(Oc1ccc(Oc2ccc(C(F)(F)F)cc2Cl)cc1)C(=O)N1CCCO1` (configuration not stated) belongs 66.5 to 67.5 °C; to `Cn1cc(F)cnc1=O`, 177 to 178 °C.
To `Nc1ccc2c(c1)C(=O)N(c1ccc3ccsc3c1)C2` belongs 233 to 236 °C; to `COc1nc2ccccc2c(-c2ccccc2)c1C(=O)N(C)Cc1cc(C(F)(F)F)cc(C(F)(F)F)c1`, 146 to 147 °C.
Next, `CCN(CC)CCC1(C#N)c2ccccc2COc2ccccc21` (configuration not stated): 87 to 90 °C; `O=S(=O)(Nc1ccc2c(OCc3nc4ccccc4s3)cccc2c1)C(F)(F)F`: 190 to 192 °C.
As for `Oc1cccc2c1C[C@@H](O)[C@H](O)C2` (relative stereo), the melting point was in the range of 183 to 184 °C.
To `COC(=O)Cc1c(Cl)cc(C(=O)c2ccc(C)cc2)n1C` belongs 144 to 146 °C.
Take `COc1cc(OC)nc(NC(=O)NS(=O)(=O)Oc2ccccc2-c2csnn2)n1`: the melting point is 173 to 175 °C.
To `COc1cc(OC)cc(-c2ncn(-c3cc(OC)c(OC)c(OC)c3)c2-c2ccc(OC)c(O)c2)c1` belongs 110 to 111 °C; to `O=[N+]([O-])c1ccccc1-c1ccc(Br)cc1[N+](=O)[O-]`, 145 to 147 °C.
To `CCOP(=S)(OCC)ON=C1C=CC(=C(C#N)c2ccccc2C)S1` belongs 86 to 87 °C; to `CS(=O)(=O)c1ccc(-c2nc(C(F)(F)F)[nH]c2-c2ccccc2)cc1`, 228 to 230 °C; to `O=C(N[C@H](Cc1ccccc1)C(=O)O)OCc1cc2cc(-c3ccccc3)ccc2[nH]1`, 168 to 174 °C.
`CCOC(=O)C(=Nc1ccc(OC)cc1)c1cccn1C` came in with a melting point of 83 to 85 °C.
Next, `CCC(=O)SCC(Cc1ccccc1)C(=O)Nc1cc(C)cc(C(=O)O)c1` (configuration not stated): 151 to 153 °C; `CC(=O)Oc1ccc(C2=COc3ccccc3O2)cc1`: 123 to 125 °C; `CC1(C)N=C(c2ccccc2F)c2cc([N+](=O)[O-])cc(Br)c2NC1=O`: 164 °C.
The compound `O=C(O)c1cccc2c1CCc1ccsc1-2` registered a melting point of 182 to 184 °C.
To `O=C(O)CNC(=O)Nc1cccc([N+](=O)[O-])c1` belongs 217 to 218 °C; to `CSC(=C[N+](=O)[O-])NCCCOc1cccc(CN2CCCCC2)c1`, 68 to 69.5 °C.
As for `NC(=O)c1ccc(-c2ccc3nnn(Cc4c(F)cc5ncccc5c4F)c3n2)cc1Cl`, the melting point fell in the range of 216 to 219 °C.
To `COc1cc2c(c3c1OC(C)(C)C3)C(c1cccc(-c3ccco3)c1)=NC(C)(C)C2` belongs 126 to 128 °C.
Compound `COc1ccc(-c2cnc3cc4cn(Cc5ccccc5)nc4cc3n2)cc1F` yielded a melting point of 225 to 227 °C.
To `NS(=O)(=O)c1ccn2c1C(=O)OCC2` belongs 204 to 206 °C; to `Cn1nc(C(F)(F)F)n(-c2ccc(I)cc2Cl)c1=S`, 117 to 119 °C.
Turning to `O=[N+]([O-])c1cc(N=c2sc(=S)n3n2CCCC3)c(F)cc1Cl`, the melting point lay in the range of 171 to 173 °C.
As to `O=[N+]([O-])c1c[nH]nc1-c1ccc(Cl)cc1`, the melting point was 172 to 174 °C.
Next, `Cc1cc(-c2ccc(C(F)(F)F)nc2)nc(-c2cccc(-c3cccc(S(N)(=O)=O)c3)n2)n1`: 254 °C; `N#Cc1cnn2c(C(F)(F)F)cc(-c3ccc(F)cc3)nc12`: 198 °C; `CSC(C(=O)c1nsc(NC=O)n1)S(C)=O` (configuration not stated): 130 to 132 °C.
In the case of `C#CCOc1ccc2c(C)cc(=O)oc2c1C(=O)C=Cc1ccc(F)cc1`, the melting point lay within 185 to 186 °C.
Compound `CC(=O)c1cc(C(C)=O)c(O)cc1N` displayed a melting point of 227 to 230 °C.
Next, `CC(C)(C)OC(=O)Nc1cccc(OC2CCN(c3ccncc3)CC2)c1`: 165 to 166 °C.
Compound `ClCc1ccc(OCCC(c2ccccc2)(c2ccccc2)c2ccccc2)cc1` registered a melting point of 91 to 95 °C.
Next, `CC(c1ccc(OCCC2OCCCO2)cc1)(c1ccc(OCCC2OCCCO2)cc1)c1ccc(OCCC2OCCCO2)cc1`: 101 °C; `CC(N)=CC(=O)CS(=O)(=O)NC(C)C`: 119 to 121 °C; `CN1CCN(c2ccc(C(=O)N[C@H]3CC[C@H](CCN4CCN(c5nccc6c5OCC6)CC4)CC3)cc2)CC1`: 236 °C.
To `Cc1nc(=O)c(O)c(-c2ccc(Cc3ccc(F)cc3)cn2)[nH]1` belongs greater than 300 °C.
To `CONS(=O)(=O)c1ccccc1S(=O)(=O)NC(=O)Nc1nc(C)cc(C)n1` belongs 218 to 219 °C; to `CN(C(=O)c1ccnc(Cl)c1)c1ccccc1N1CCN(C(=O)OC(C)(C)C)CC1`, 59 to 61 °C; to `COC(=O)COc1ccc(-c2ccc3c(c2)c(C)c(-c2ccccc2)n3Cc2ccccc2)cc1`, 167 to 170 °C.
Take `CC(C)c1ccc2c(c1)OCc1ccc(C#N)cc1C2=O`: the melting point fell in the range of 101 to 108 °C.
To `CC(=O)Nc1ccc2c(c1)CC1(OC1c1ccccc1)C2=O` (configuration not stated) belongs 195 to 197 °C.
With `CC(C)(CO)NCC(O)Cn1ccnc1[N+](=O)[O-]` (configuration not stated), the melting point is 114 to 116 °C.
`CCc1cc2ccccn2c1C(=O)c1cc(Cl)c(O)c(Cl)c1` yielded a melting point of 206 °C.
Next, `CC(CNC(=O)CN1CCCC1=O)N1CCN(C)CC1` (configuration not stated): 84 to 85 °C.
`CCc1c(CCC(=O)OC)ccc2c1OCO2`: the melting point fell in the range of 44 to 46 °C.
As to `CCOC(=O)C1=C(C)Nc2nc(N3CCOCC3)nc(N3CCOCC3)c2C1c1ccccc1Cl` (configuration not stated), the melting point was found to be 241 °C.
The compound `O=C=Nc1ccc(OC(=O)COCCOCC(=O)Oc2ccc(N=C=O)cc2)cc1` yielded a melting point of 139 to 142 °C.
Next, `Clc1ncc(-c2ccnc(N3CCOCC3)n2)c2ccccc12`: 180 to 181 °C; `CC(C)S(=O)(=O)ON=C(C#N)c1cccs1`: 80 to 82 °C.
Next, `Nc1nc(Cl)c(CCCl)c(Cl)n1`: 210 to 213 °C; `CCC(O)c1ccc(Cl)c2nc3n(c12)CCCN3c1c(Cl)cc(Cl)cc1Cl` (configuration not stated): 213 to 214 °C; `COc1ccc2c(c1)C(=O)C(=O)N2c1ccc(F)cc1`: 246 to 247 °C.
To `CC(C)(C)OC(=O)[C@@H]1CS[C@H](c2ccccc2)N1C(=O)CNC(=O)Nc1cccc(CCO)c1` belongs 164 °C; to `Cc1ccccc1CCC(C)(C)NC(=O)n1nc(N(C)C)n(N)c1=O`, 117 °C.
Take `O=[N+]([O-])c1ccc(-n2ncnc2-c2cnccn2)cc1`: the melting point fell in the range of 188 to 189 °C.
Next, `CN1C=CCC(C(=O)NCCc2ccc(OC(=O)C(C)(C)C)c(OC(=O)C(C)(C)C)c2)=C1`: 45 to 48 °C.
Next, `CCn1cc(C2(c3cccc(Br)c3)N=C(N)N(C)C2=O)cc1C=O` (configuration not stated): 194 to 195 °C; `c1ccc(-n2c3ccccc3c3cc4c(cc32)c2ccccc2n4-c2ccccc2)cc1`: 306 °C; `COc1ccc(C(=O)OC2C=C(C)C(=O)CC(C)(C)C2OC(C)=O)cc1` (configuration not stated): 93 to 94 °C.
Next, `CCCN(CCC)CCCCNC(=O)c1cnc2cc(I)ccc2n1`: 74 to 76 °C; `CC(C(=O)NCC(COC(=O)C(C)(C)C)Cc1ccc(C(C)(C)C)cc1)c1ccc(NS(C)(=O)=O)cc1` (configuration not stated): 97 to 100 °C; `N#Cc1ccc(OCc2cnsc2)cc1OC(C(=O)O)c1ccccc1Cl` (racemic): 194 to 197 °C.
For `CN(C)S(=O)(=O)N1CCN(S(=O)(=O)c2ccc(-c3ccc(CC#N)cc3)s2)[C@@H](C(=O)NO)C1`, the melting point is 170 to 172 °C.
Next, `O=c1[nH]nnn1-c1ccc([N+](=O)[O-])cc1F`: 148 to 150 °C.
Compound `O=C(O)c1cccc(-c2cccc(Oc3ccc(Cl)cc3Cl)n2)c1` registered a melting point of 244 to 245 °C.
To `CN1CCN(c2nc3sc4c(NCc5cccnc5)ncnc4c3c3c2COC(C)(C)C3)CC1` belongs 251 to 252 °C; to `FC(F)(F)COc1cc(-c2cc(C(F)(F)F)n3ncc(-c4ccncc4)c3n2)ccc1C(F)(F)F`, 251 °C.
Next, `CC(=O)c1cccc(Oc2ncccc2OCCCc2ccncc2O)c1`: 101 to 102 °C; `Nc1cccc(-c2ccc(CCN3CCc4ccccc4C3)cc2)n1`: 130 to 132 °C.
